In patent US12162913B2 (priority 2016, dated 2024):
Entries after “also recorded” stand apart in the source; their conditions may differ. Read-outs that look alike come from different tables or passages of the source.

Key:
[1] = target: R. microplus nAChRα6 (Rma6) homopentamers (Rhipicephalus microplus, UniProt A0A223PM23); assay: Two-electrode voltage clamp on Xenopus oocytes expressing Rmα6 homopentamers; assay type: cell-based
Procedure: (§1) The plasmids containing the sequences of choice were linearized using BeuI (Spel) FastDigest (ThermoFisher) restriction enzyme for 30 min at 37°, and an aliquot run on an agarose gel to check for complete linearization. The plasmid DNA was phenol:chloroform purified and ethanol precipitated. The pellet was re-suspended in deionized water. Capped RNA was synthesized using mMessage mMachine T7 kit from 1 μg linearized plasmid DNA, the sample phenol:chloroform purified and isopropanol precipitated. The pellet was re-suspended in deionized water to a concentration of 500 ng/μl, analysed on an agarose gel for integrity and stored at −80° C. until further use.
(§2) Xenopus laevis oocytes were purchased as whole ovaries from the European Xenopus Resource Centre (University of Portsmouth), delivered in less than 24 h in Modified Barth's Saline (MBS) on wet ice. Upon arrival, the oocytes were treated with 2 mg/ml collagenase type I (Sigma-Aldrich) in calcium-free Barth's solution (NaCl 88 mM, Tris-HCl 15 mM, NaHCO32.4 mM, MgCl2 0.82 mM, KCl 1 mM, pH 7.5) for 30 min at room temperature. The separated oocytes were rinsed thoroughly in calcium-free Barth's solution, manually de-folliculated and injected using a Drummond microinjector with 25 ng/oocyte capped RNA. The oocytes were incubated at 18° C. in calcium-containing ([…]) Barth's solution supplemented with 4 μg/ml Kanamycin, 50 μg/ml Tetracycline, 100 U/ml Penicillin and 100 μg/ml Streptomycin. Two-electrode voltage clamp recordings were performed after 3-5 days using an OC-725C oocyte clamp (Warner instruments) with the membrane potential clamped at −60 mV. The oocytes were continuously perfused with frog Ringer's solution (NaCl 115 mM, KCl 2.5 mM, CaCl2) 1.8 mM and HEPES 10 mM) and the dilutions of ligands prepared in Ringer's saline applied using a VC-8 multi-valve perfusion system (Warner Instruments). Following ligand application, the current required to maintain the membrane potential at −60 mV was measured and used for subsequent data analysis.
(§3) Two-electrode voltage clamp electrophysiology data acquisition was done using LabScribe software (iWorks Systems) and the data transferred to GraphPad Prism (GraphPad Software) for traces analysis and dose-response curve fitting.

[2] = target: R. microplus nAChRα5 (Rmα5) homopentamers (Rhipicephalus microplus, UniProt A0A223PM17, I539V); assay type: cell-based
Procedure: as §1, §2, §3

Sequence of R. microplus nAChRα5 (Rmα5) homopentamers (A0A223PM17 entry or part of it I539V): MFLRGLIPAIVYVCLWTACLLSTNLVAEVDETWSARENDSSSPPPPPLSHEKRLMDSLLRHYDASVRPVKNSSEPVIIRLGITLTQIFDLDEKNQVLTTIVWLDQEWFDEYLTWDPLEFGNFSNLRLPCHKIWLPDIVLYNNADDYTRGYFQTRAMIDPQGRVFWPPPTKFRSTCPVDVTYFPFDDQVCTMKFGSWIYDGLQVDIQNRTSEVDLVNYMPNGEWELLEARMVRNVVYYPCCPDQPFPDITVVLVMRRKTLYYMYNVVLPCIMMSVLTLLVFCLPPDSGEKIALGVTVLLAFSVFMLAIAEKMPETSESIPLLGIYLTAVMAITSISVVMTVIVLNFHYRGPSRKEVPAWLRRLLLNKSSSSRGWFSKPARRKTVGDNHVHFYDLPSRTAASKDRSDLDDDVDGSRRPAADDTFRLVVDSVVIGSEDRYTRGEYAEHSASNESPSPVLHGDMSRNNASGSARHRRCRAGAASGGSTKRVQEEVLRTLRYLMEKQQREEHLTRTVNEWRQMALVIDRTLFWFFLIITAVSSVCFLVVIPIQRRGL
Sequence of R. microplus nAChRα6 (Rma6) homopentamers (A0A223PM23 entry or part of it): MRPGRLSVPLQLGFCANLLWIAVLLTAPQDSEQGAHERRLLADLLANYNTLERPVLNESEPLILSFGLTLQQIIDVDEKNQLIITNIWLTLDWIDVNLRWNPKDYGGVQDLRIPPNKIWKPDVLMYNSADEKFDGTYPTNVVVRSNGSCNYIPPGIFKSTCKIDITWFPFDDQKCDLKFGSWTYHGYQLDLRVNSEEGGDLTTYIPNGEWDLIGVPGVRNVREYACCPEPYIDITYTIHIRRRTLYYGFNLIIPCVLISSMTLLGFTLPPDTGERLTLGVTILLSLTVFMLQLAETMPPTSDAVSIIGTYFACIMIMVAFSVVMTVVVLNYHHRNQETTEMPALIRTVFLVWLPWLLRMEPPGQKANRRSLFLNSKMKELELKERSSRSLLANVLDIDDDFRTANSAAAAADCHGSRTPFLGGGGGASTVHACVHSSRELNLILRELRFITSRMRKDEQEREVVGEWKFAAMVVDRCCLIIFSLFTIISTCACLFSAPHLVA

Row | Molecule | action on Rma6 receptor [1] | character of responses on Rma6 [1] | action on Rma6 receptor ([1]; listed as imidacloprid) | EC50 of spinosad lower than ACh EC50 (fold) ([2]; Rmα5 receptor) | action on Rmα5 receptor ([2]; Xenopus oocytes) | character of responses on Rmα5 ([2]; Xenopus oocytes, ACh 300 μM, spinosad 30 μM representative traces) | time to response plateau ([2]; during application) | time to first signs of depolarization ([2]; during perfusion) | EC50 ([1]; membrane potential clamped at −60 mV, dose-response curve, read-out: EC50 (activation of Rma6 receptor)) [nM]
1 | O=[N+]([O-])NC1=NCCN1Cc1ccc(Cl)nc1 [Imidacloprid, imidacloprid] | partial agonist | small, non-desensitizing responses | induced responses |  |  |  |  |  | 
2 | spinosad | does not directly activate; also recorded: type II allosteric modulator |  |  | over 10 times | higher efficacy than ACh; also recorded: agonist | large and also non-desensitizing | around 30 s | about 15 s | 
3 | CC(=O)OCC[N+](C)(C)C [ACh, acetylcholine] |  |  |  |  |  |  |  |  | 1970 ± 1200
